Experimental data published in EPA's ToxRefDB 2.

Tests used:
primate [1] = settings: Sub-acute repeat dose toxicity, Oral, Gavage/Intubation, dose end: 14 day, group: systemic
rat [2] = settings: Sub-acute repeat dose toxicity, Oral, Gavage/Intubation, dose end: 7 day, group: systemic
primate [3] = settings: Sub-acute repeat dose toxicity, Oral, Gavage/Intubation, dose end: 7 day, group: systemic
rat [4] = settings: Sub-acute repeat dose toxicity, sprague dawley, Oral, Gavage/Intubation, dose end: 14 day, group: systemic
rat [5] = settings: Subchronic oral toxicity in rodents, sprague dawley, Gavage/Intubation, dose end: 92 day, group: systemic, systemic / pathology microscopic / stomach / thickened
rat [6] = settings: Subchronic oral toxicity in rodents, sprague dawley, Feed, dose end: 13 week, group: systemic
dog = settings: Subchronic oral toxicity in nonrodent, beagle, Feed, dose end: 90 day, group: systemic
rat [7] = settings: Subchronic oral toxicity in rodents, sprague dawley, Gavage/Intubation, dose end: 90 day, group: systemic, systemic / pathology microscopic / stomach / hyperkeratosis + systemic / pathology microscopic / stomach / hyperplasia
rat [8] = settings: Prenatal developmental toxicity study, sprague dawley, Oral, Gavage/Intubation, dose end: 16 GD
[9] = systemic / in life observation / body weight / body weight
[10] = systemic / in life observation / body weight / body weight + systemic / clinical chemistry / chloride / chloride + systemic / clinical …
[11] = systemic / in life observation / mortality / mortality + systemic / pathology microscopic / stomach / degeneration + systemic / clinical …
[12] = systemic / clinical chemistry / phosphorus / phosphorus + systemic / clinical chemistry / sodium / sodium + systemic / clinical chemistry / …
[13] = systemic / pathology microscopic / vagina / prolapse + systemic / in life observation / clinical signs / vomitting + systemic / in life …
[14] = systemic / clinical chemistry / albumin / albumin + systemic / clinical chemistry / globulins / globulins + systemic / pathology microscopic…
[15] = systemic / in life observation / body weight / body weight + systemic / in life observation / food consumption / food efficiency + systemic…
[16] = systemic / in life observation / body weight / body weight + systemic / in life observation / food consumption / food consumption + systemic…
[17] = group: developmental, developmental / developmental malformation / bone / incomplete ossification + developmental / developmental malformation / bone / unossified…
[18] = group: maternal, systemic / in life observation / body weight / body weight gain + systemic / in life observation / food consumption / food consumption + …

SMILES: CCn1nc(C)c2c1C(=O)NCC(c1ccc(O)cc1)=N2
- LEL (primate [1]; [9]): 5 mg/kg/day
- NEL (primate [1]; [9]): < 5 mg/kg/day
- LOAEL (primate [1]; [10]): > 20 mg/kg/day
- NOAEL (primate [1]; [10]): ≥ 20 mg/kg/day
- LOAEL (rat [2]; [11]): > 300 mg/kg/day
- NOAEL (rat [2]; [11]): ≥ 300 mg/kg/day
- LEL (rat [2]; systemic / pathology microscopic / heart / fibrosis + systemic / pathology microscopic / heart / hemorrhage + systemic / pathology …): 80 mg/kg/day
- LOAEL (primate [3]; [12]): > 50 mg/kg/day
- NOAEL (primate [3]; [12]): ≥ 50 mg/kg/day
- LEL (primate [3]; [13]): 10 mg/kg/day
- NEL (primate [3]; [13]): < 10 mg/kg/day
- LOAEL (rat [4]; [14]): > 80 mg/kg/day
- NOAEL (rat [4]; [14]): ≥ 80 mg/kg/day
- NEL (rat [4]; systemic / organ weight / testes / absolute + systemic / pathology microscopic / blood vessel / inflammation + systemic / pathology …): 20 mg/kg/day
- LEL (rat [4]; systemic / organ weight / testes / absolute + systemic / pathology microscopic / heart / necrosis + systemic / pathology microscopic / …): 40 mg/kg/day

SMILES: O=c1[nH]sc2ccccc12 [1,2-Benzisothiazolin-3-one]
- LEL (rat [5]): 10 mg/kg/day
- LOAEL (rat [5]): 10 mg/kg/day
- NEL (rat [5]): < 10 mg/kg/day
- NOAEL (rat [5]): < 10 mg/kg/day
- LEL (rat [6]; [9]): 69 mg/kg/day
- LOAEL (rat [6]; [9]): 69 mg/kg/day
- NEL (rat [6]; [15]): 15.3 mg/kg/day
- NOAEL (rat [6]; [15]): 15.3 mg/kg/day
- LOAEL (dog; systemic / in life observation / body weight / body weight + systemic / in life observation / food consumption / food consumption): 89 mg/kg/day
- LEL (dog; [16]): 89 mg/kg/day
- NEL (dog; [16]): 38 mg/kg/day
- NOAEL (dog; [16]): 38 mg/kg/day
- LEL (rat [7]): 10 mg/kg/day
- LOAEL (rat [7]): > 10 mg/kg/day
- NOAEL (rat [7]): ≥ 10 mg/kg/day
- LOAEL (rat [8]; [17]): 100 mg/kg/day
- NEL (rat [8]; [17]): 10 mg/kg/day
- NOAEL (rat [8]; [17]): 40 mg/kg/day
- LEL (rat [8]; group: developmental, developmental / developmental malformation / bone / unossified): 40 mg/kg/day
- LOAEL (rat [8]; group: maternal, systemic / in life observation / body weight / body weight gain + systemic / in life observation / food consumption / food consumption): 100 mg/kg/day
- NEL (rat [8]; [18]): 10 mg/kg/day
- NOAEL (rat [8]; [18]): 40 mg/kg/day
- LEL (rat [8]; group: maternal, systemic / in life observation / clinical signs / abnormal respiratory sounds): 40 mg/kg/day
